Tested on: healthy subjects
Experiment: Study S.241.2.104: gastric visceral perception (barostat)
Assay type: in vivo, human
Experimental: The effect of cilansetron on gastric perception was evaluated in a randomized, double-blind, placebo-controlled, parallel-group study in 44 male and female healthy subjects (ITT population; 22 subjects received placebo and 22 received 8 mg cilansetron), aged 19-43 years. Subjects received cilansetron 8 mg TID orally for 7 days and gastric distension tests were done at baseline (Day 1, prior to dosing) and poststudy (Day 8). An electronic barostat was used to produce isobarometric distensions (starting from 2 mmHg, progressive distensions in 2 mmHg increments were performed every 2 minutes until gastric pain occurred or an upper limit of 20 rnrnHg was reached) and isovolumetric distensions (starting from an initial volume of 200 mL, progressive distensions in 100 mL increments were performed every 2 minutes until gastric pain occurred or an upper limit of 1100 mL was reached). The primary efficacy parameter was the difference in pain threshold from baseline to poststudy, measured by the amount of distension pressure inducing gastric pain. Secondary parameters were the mean distension pressure/volume inducing the first feelings of gastric sensation and gastric discomfort, and changes in bowel habits over the treatment period. A 2-sample t-test was used to compare baseline-adjusted pain threshold and other secondary efficacy parameters between cilansetron and placebo treatments.

[1] = 8 mg TID oral 7 days, Day 8, arith. mean
[2] = 8 mg TID oral 7 days, arith. mean
[3] = 8 mg TID oral 7 days, baseline-adjusted, 2-sample t-test, significant (p < 0.01)

In the case of Cc1nccn1C[C@H]1CCc2c(c3cccc4c3n2CCC4)C1=O [Cilansetron, (R)-(−)-4,5,6,8,9,10-hexahydro-10-[(2-methyl-1H-imidazol-1-yl)methyl]-11H-pyrido-[3,2,1-jk]-carbazol-11-one], the “Mean gastric pain threshold raised vs baseline” value (8 mg TID 7 days) is reported as 1.9 mmHg, the “Pressure first producing gastric discomfort, Poststudy” value [1] is reported as 11.9 mmHg and the “Pressure first producing gastric pain, Poststudy” value [1] is reported as 15.4 mmHg. For the same molecule, the “Pressure first producing gastric sensation, Poststudy” value [1] was 8.9 mmHg, the “Volume first producing gastric pain, Poststudy” value [1] was 764 mL and the “Pressure first producing gastric discomfort, Change from Baseline” value [2] was 0.9 mmHg. For the same molecule, the “Pressure first producing gastric pain, Change from Baseline” value [2] was 1.9 mmHg, the “Pressure first producing gastric sensation, Change from Baseline” value [2] was 0.9 mmHg and the “Volume first producing gastric pain, Change from Baseline” value [2] was 77 mL. For the same molecule, the “Volume first producing gastric pain, Difference cilansetron versus placebo” value (8 mg TID oral 7 days, baseline-adjusted, 2-sample t-test) was -18 mL, the “Pressure first producing gastric discomfort, Difference cilansetron versus placebo” value [3] was 2.2 mmHg and the “Pressure first producing gastric pain, Difference cilansetron versus placebo” value [3] was 2.8 mmHg. For the same molecule, the “Pressure first producing gastric sensation, Difference cilansetron versus placebo” value [3] was 2.1 mmHg, the “Gastric discomfort threshold raised” value (in vivo) was 0.9 mmHg and the “Gastric pain threshold mean increase vs placebo” value (in vivo) was 2.8 mmHg. For the same molecule, the “Gastric sensation threshold raised” value (in vivo) was 0.9 mmHg, the “Mean volume to reach gastric pain threshold raised” value (in vivo) was 77.3 mL and the “Gastric discomfort threshold treatment increase” value (vs placebo) was 2.2 mmHg. For the same molecule, the “Gastric sensation threshold treatment increase” value (vs placebo) was 2.1 mmHg and the “Volume difference between treatments” value (vs placebo) was -18.0 mL.

— patent publication US20090176817A1, “Method of Treatment of Diarrhea-Predominant Irritable Bowel Syndrome in a Subject” (priority 2005, published 2009)
